13 compounds from patent US8518916B2, “Heterocyclic derivatives as M-GLU5 antagonists” (Recordati Ireland Limited, priority 2007, dated 2013) can be followed below.

The structures appear in SMILES notation.

For assay [1], the target named is T1, mGlu5 receptor (Rattus norvegicus, UniProt P31424).
T1 construct: from tissue; host or cells: forebrain (cortex, striatum and hippocampus) of male Sprague Dawley rats
Briefly: Radioligand binding assay ([3H]MPEP) at metabotropic glutamate receptor 5 in rat brain. As to conditions: rat forebrain membranes, 4 nM [3H]MPEP; read-out: affinity (Ki) for mGlu5 receptor. The method, then: Radioligand Binding Assay at metabotropic glutamate receptor 5 in rat brain.
a) Membrane preparation: male Sprague Dawley rats (200-300 g, Charles River, Italy) were killed by cervical dislocation and the forebrain (cortex, striatum and hippocampus) was homogenized (2×20 sec) in 50 vols of cold 50 mM Tris buffer pH 7.4, using a Politron homogenizer (Kinematica). Homogenates were centrifuged at 48000×g for 15 min, resuspended in 50 vols of the same buffer, incubated at 37° C. for 15 min and centrifuged and resuspended two more times. The final pellets were frozen and stored at −80° C. until use.
b) Binding assay: pellets from rat forebrain were resuspended in 100 vols of 20 mM HEPES, 2 mM MgCl2, 2 mM CaCl2, pH 7.4. The membranes were incubated in a final volume of 1 ml for 60 min at 25° C. with 4 nM [^3H]MPEP in the absence or presence of competing drugs. Non-specific binding was determined in the presence of 10 μM MPEP (Spooren W. et al., Trends Pharmacol Sci. 22, 331-337, 2001). The incubation was stopped by the addition of cold Tris buffer pH 7.4 and rapid filtration through 0.5% polyethyleneimine pretreated Filtermat 1204-401 (Wallac) filters. The filters were then washed with cold buffer and the radioactivity retained on the filters was counted by liquid scintillation spectrometry. […]

For assay [2], the system named is conscious rats. Description: Cystometry in conscious rats (bladder volume capacity). As to conditions: for effect on bladder volume capacity: 1-3 h after treatment; for "In vivo" cystometry MED (Minimal Effective Dose that induces statistically significant increase of bladder volume capacity): oral. Format: in vivo, rat. How it is done:
Male Sprague-Dawley rats [Crl: CD® (SD) IGS BR] of 300-400 g b.w. supplied by Charles River Italia were used. The animals were housed with free access to food and water and maintained on a forced 12-hour-light/12-hour-dark cycle at 22-24° C. of temperature, except during the experiment. To quantify urodynamic parameters in conscious rats, cystometrographic studies were performed according to the procedure previously reported (Guarneri et al., Pharmacol. Res. 24: 175, 1991).
Briefly, the rats were anaesthetised by intraperitoneal administration of 3 ml/kg of Equithensin solution (pentobarbital 30 mg/kg and chloral hydrate 125 mg/kg) and placed in a supine position. An approximately 10 mm long midline incision was made in the shaved and cleaned abdominal wall. The urinary bladder was gently freed from adhering tissues, emptied and then cannulated via an incision in the bladder body, using a polyethylene cannula (0.58 mm internal diameter, 0.96 mm external diameter) which was permanently sutured with silk thread. The cannula was exteriorised through a subcutaneous tunnel in the retroscapular area, where it was connected to a plastic adapter in order to avoid the risk of removal by the animal. For drug testing, the rats were utilised one day after implantation.
On the day of the experiment, the rats were placed in modified Bollman cages, i.e., restraining cages that were large enough to permit the rats to adopt a normal crouched posture, but narrow enough to prevent turning around. After a stabilisation period of about 20 minutes, the free tip of the bladder cannula was connected through a T-shaped tube to a pressure transducer (Statham P23XL) and to a peristaltic pump (Gilson Minipuls 2) for continuous infusion of a warm (37° C.) saline solution into the urinary bladder, at a constant rate of 0.1 ml/minute. The intraluminal-pressure signal during infusion of saline into the bladder (cystometrogram) was continuously recorded on a polygraph (Rectigraph-8K San-ei with BM614/2 amplifier from Biomedica Mangoni) or stored on PC by data acquisition system (PowerLab, Chart 4 software, AD Instruments). From the cystometrogram, bladder volume capacity (BVC) was evaluated. BVC (in ml) is defined as the volume of saline infused into the bladder necessary to induce detrusor contraction followed by micturition. Basal BVC value was evaluated as the mean of the values observed in the cystometrograms recorded in an initial period of 30-60 minutes. At this point in the assay, the infusion was interrupted and the test compounds were administered orally by a stomach tube. The bladder infusion restarted and changes in BVC were evaluated from the mean values obtained in the cystometrograms observed during 1, 2, and 3 hours after treatment. The compounds were administered in a volume of 2 ml/kg. Groups of control animals received the same amount of vehicle corresponding to a solution 0.5% methocel in water.
Under the given test conditions, measurement of BVC is equivalent to measurement of interval time between micturitions.
Each experimental group was composed of 4-11 animals. All data were expressed as mean±standard error. The percent change of BVC versus the basal value, as well as Δ value (difference in ml) of BVC (BVC at time “x” minus basal value), were also evaluated for each rat/time. In the figures, data are reported as % change versus the basal value.
Statistical analysis on BVC values, as well as on Δ values, was performed by S.A.S./STAT software, version 6.12. The difference between vehicle and active treatment effect was evaluated on Δ values of BVC, whereas the difference between the values at different times versus the basal values was evaluated on original BVC data.

T1 sequence (P31424 21-1203): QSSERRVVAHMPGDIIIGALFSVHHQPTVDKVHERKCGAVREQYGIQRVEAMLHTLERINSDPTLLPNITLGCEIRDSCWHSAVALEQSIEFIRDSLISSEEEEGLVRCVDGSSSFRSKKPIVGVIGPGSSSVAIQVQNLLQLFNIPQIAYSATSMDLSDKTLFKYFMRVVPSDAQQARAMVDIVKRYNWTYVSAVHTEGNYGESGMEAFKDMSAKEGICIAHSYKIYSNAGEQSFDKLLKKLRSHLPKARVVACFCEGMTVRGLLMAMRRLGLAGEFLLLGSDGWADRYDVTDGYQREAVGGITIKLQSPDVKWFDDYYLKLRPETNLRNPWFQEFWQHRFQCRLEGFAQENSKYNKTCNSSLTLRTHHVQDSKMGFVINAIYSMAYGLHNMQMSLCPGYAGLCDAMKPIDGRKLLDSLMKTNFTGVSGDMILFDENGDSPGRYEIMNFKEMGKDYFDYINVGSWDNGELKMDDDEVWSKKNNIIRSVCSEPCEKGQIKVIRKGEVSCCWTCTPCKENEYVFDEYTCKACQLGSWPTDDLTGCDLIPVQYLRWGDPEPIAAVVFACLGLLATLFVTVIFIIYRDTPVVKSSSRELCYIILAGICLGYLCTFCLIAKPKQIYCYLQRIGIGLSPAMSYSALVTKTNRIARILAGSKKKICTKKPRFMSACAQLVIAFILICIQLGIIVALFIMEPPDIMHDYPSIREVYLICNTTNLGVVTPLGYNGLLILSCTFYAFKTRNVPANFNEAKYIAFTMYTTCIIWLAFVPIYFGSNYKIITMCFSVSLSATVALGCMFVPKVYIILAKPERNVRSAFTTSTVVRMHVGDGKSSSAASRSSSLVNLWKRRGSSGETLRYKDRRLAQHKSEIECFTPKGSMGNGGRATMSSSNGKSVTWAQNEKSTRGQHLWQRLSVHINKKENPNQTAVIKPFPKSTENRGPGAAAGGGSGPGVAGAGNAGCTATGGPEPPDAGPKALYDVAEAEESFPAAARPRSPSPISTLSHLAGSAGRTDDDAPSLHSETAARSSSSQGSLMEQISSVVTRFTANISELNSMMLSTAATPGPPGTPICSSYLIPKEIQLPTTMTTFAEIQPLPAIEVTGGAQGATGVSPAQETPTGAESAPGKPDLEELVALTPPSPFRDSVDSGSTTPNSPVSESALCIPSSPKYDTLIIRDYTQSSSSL

One may read the Ki as a dissociation constant, usually derived from enzyme kinetics or from competition with a known ligand. On to `Cc1cccc(C#CC=C2CCN(c3ncccc3[N+](=O)[O-])CC2)n1` [Example 1, 2-{4-[3-(6-Methylpyridin-2-yl)prop-2-ynylidene]piperidin-1-yl}-3-nitropyridine], for which, in assay [1], the Ki was 0.37 nM. Further, the “effect on bladder volume capacity” value in assay [2] (1 mg/kg orally) and in assay [2] (3 mg/kg orally) was “proved effective in increasing the bladder volume capacity” throughout. Also, the “"In vivo" cystometry MED (Minimal Effective Dose that induces statistically significant increase of bladder volume capacity)” value in assay [2] turned out to be 3 mg/kg os. On to `Cc1cccc(C#CC=C2CCN(c3nc(C)ccc3[N+](=O)[O-])CC2)n1` [Example 5, 6-Methyl-2-[4-[3-(6-methylpyridin-2-yl)prop-2-ynylidene]piperidin-1-yl]-3-nitropyridine], for which the “"In vivo" cystometry MED (Minimal Effective Dose that induces statistically significant increase of bladder volume capacity)” value in assay [2] worked out at 0.1 mg/kg os. In the case of `COc1ccc([N+](=O)[O-])c(N2CCC(=CC#Cc3cccc(C)n3)CC2)n1` [Example 6, 6-Methoxy-2-{4-[3-(6-methylpyridin-2-yl)prop-2-ynylidene]piperidin-1-yl}-3-nitropyridine], the “"In vivo" cystometry MED (Minimal Effective Dose that induces statistically significant increase of bladder volume capacity)” value in assay [2] is given as 1 mg/kg os. Still for that read-out and setting: next, `O=[N+]([O-])c1cccnc1N1CCC(=CC#Cc2ccccn2)CC1` [Example 9, 3-Nitro-2-[4-(3-pyridin-2-ylprop-2-ynylidene)piperidin-1-yl]pyridine]: 1 mg/kg os. On to `O=[N+]([O-])c1cccnc1N1CCC(=CC#Cc2ccccc2)CC1` [Example 10, 3-Nitro-2-[4-(3-phenylprop-2-ynylidene)piperidin-1-yl]pyridine], for which the figures for the “effect on bladder volume capacity” value in assay [2] (0.3 mg/kg orally) and in assay [2] (1 mg/kg orally) were “slightly increased the bladder volume capacity (not statistical significant)” and “proved effective in increasing bladder volume capacity”, respectively. Besides, the “"In vivo" cystometry MED (Minimal Effective Dose that induces statistically significant increase of bladder volume capacity)” value in assay [2] is listed as 1 mg/kg os. As for `O=[N+]([O-])c1cccnc1N1CCC(=CC#Cc2ccc(F)nc2)CC1` [Example 35, 2-{4-[3-(6-Fluoropyridin-3-yl)prop-2-ynylidene]piperidin-1-yl}-3-nitropyridine], the “"In vivo" cystometry MED (Minimal Effective Dose that induces statistically significant increase of bladder volume capacity)” value in assay [2] came to 3 mg/kg os. Take `Cc1cccc(C#CC=C2CCN(c3ccccc3C#N)CC2)n1` [Example 43, 2-{4-[3-(6-Methylpyridin-2-yl)prop-2-ynylidene]piperidin-1-yl}benzonitrile]: the “"In vivo" cystometry MED (Minimal Effective Dose that induces statistically significant increase of bladder volume capacity)” value in assay [2] turned out to be 3 mg/kg os.

On to `Cc1cccc(C#CC=C2CCN(c3ccc(F)cc3[N+](=O)[O-])CC2)n1` [Example 55, 2-{3-[1-(4-Fluoro-2-nitrophenyl)piperidin-4-ylidene]prop-1-ynyl}-6-methylpyridine], for which the “"In vivo" cystometry MED (Minimal Effective Dose that induces statistically significant increase of bladder volume capacity)” value in assay [2] amounted to 0.3 mg/kg os.

Take `Cc1cccc(C#CC=C2CCN(c3ccc(C#N)cc3[N+](=O)[O-])CC2)n1` [Example 56, 4-{4-[3-(6-Methylpyridin-2-yl)prop-2-ynylidene]piperidin-1-yl}-3-nitrobenzonitrile]: the “"In vivo" cystometry MED (Minimal Effective Dose that induces statistically significant increase of bladder volume capacity)” value in assay [2] amounted to 1 mg/kg os. `O=[N+]([O-])c1cccnc1N1CCC(=C(F)C#Cc2ccccc2)CC1` [Example 67, 2-[4-(1-Fluoro-3-phenylprop-2-yn-1-ylidene)piperidin-1-yl]-3-nitropyridine]: in assay [2], the “"In vivo" cystometry MED (Minimal Effective Dose that induces statistically significant increase of bladder volume capacity)” value amounted to 1 mg/kg os. Same read-out and setting: next, `O=[N+]([O-])c1cccnc1N1CCC(=CC#Cc2cc(F)cc(F)c2)CC1` [Example 202, 2-{4-[3-(3,5-Difluorophenyl)prop-2-yn-1-ylidene]piperidin-1-yl}-3-nitropyridine]: 3 mg/kg os; `O=[N+]([O-])c1cccnc1N1CCC(=CC#Cc2cccc(Br)c2)CC1` [Example 208, 2-{4-[3-(3-Bromophenyl)prop-2-yn-1-ylidene]piperidin-1-yl}-3-nitropyridine]: 0.3 mg/kg os. As for `Cc1nc(C#Cc2cccnc2)cs1` [MTEP, reference compound], the entries for the “effect on bladder volume capacity” value in assay [2] (1 mg/kg orally) and in assay [2] (3 mg/kg orally) were “only a slight increase of bladder volume capacity” and “sustained increase”, respectively. Moreover, the “"In vivo" cystometry MED (Minimal Effective Dose that induces statistically significant increase of bladder volume capacity)” value in assay [2] is reported as 3 mg/kg os.
